Converted amounts (≈) assume the structure as drawn. Like-named read-outs stand apart in the source and are kept apart here. Values belong to the compound of their own block, whether it stands above or below them.
Key:
AKO mice = experiment: GW treatment in mouse model of ALD (AKO mice), fatty acid analysis by GC/MS and gene expression; assay type: in vivo
Text: ALD is a rare genetic disorder caused by defects in peroxisomal oxidation of very long-chain fatty acids (VLCFAs), resulting in systemic accumulation of VLCFAs, which causes tissue defects mainly in the central nervous system and the adrenal glands. The majority of VLCFAs in the body are endogenously synthesized from long-chain fatty acids (LCFAs). Therefore, one potential way to prevent VLCFA accumulation in ALD is by inducing mitochondrial LCFA oxidation to reduce the availability of LCFAs for VLCFA biosynthesis. In order to test this, a previously described mouse model of ALD was used, in which the X-linked adrenoleukodystrophy gene abcdl was systemically ablated and the knockout (AKO) mice faithfully recapitulated the abnormal VLCFA accumulation phenotype seen in ALD patients.
3-month-old AKO mice were treated with or without GW and their tissues collected for free FA analysis using GC/MS.

[1] = Solubility (kinetic, thermodynamic); assay type: physicochemical
[2] = assay type: in vitro ADME; details: MLM
[3] = Pharmacokinetics in male CD-1 mice (i.v. and p.o.); assay type: in vivo; details: CD-1 mice; for Vd: CD-1, mouse, 3 mg/kg
Description: The oral bioavailability and serum half lives of PPARδ ligands were compared in mice. The pharmacokinetics of PPARδ ligands delivered orally (10 mg/kg p.o.) and intravenously (3 mg·kg i.v.) were determined by mass spectrometry.
In this example, the PK profile of several PPARδ agonists disclosed herein in male CD-1 mice or Wistar rats was determined. Similar methods can be used to analyze other compounds provided herein.
(quantity sufficient ie made up to a final volume of 100% with water). All compounds were separately administered to CD-1 mice at 3 mg/kg iv or 10 mg/kg po.
The concentration of the compound in plasma was determined, as illustrated in FIGS. 9A-9E.

% Parent remained in HLM = assay type: in vitro ADME
PPARδ = biological target: T1, PPARδ (Homo sapiens, UniProt Q03181); experiment: Nuclear Hormone Receptor (NHR) protein interaction assay (PathHunter), agonist format; assay type: cell-based; details: PathHunter NHR cell line, agonist format; read-out: NHR protein interaction assay, EC50 (nM) for PPARδ
T1 construct: expressed in transfected cells; host or cells: PathHunter NHR cell lines
T1 sequence (Q03181 1-441): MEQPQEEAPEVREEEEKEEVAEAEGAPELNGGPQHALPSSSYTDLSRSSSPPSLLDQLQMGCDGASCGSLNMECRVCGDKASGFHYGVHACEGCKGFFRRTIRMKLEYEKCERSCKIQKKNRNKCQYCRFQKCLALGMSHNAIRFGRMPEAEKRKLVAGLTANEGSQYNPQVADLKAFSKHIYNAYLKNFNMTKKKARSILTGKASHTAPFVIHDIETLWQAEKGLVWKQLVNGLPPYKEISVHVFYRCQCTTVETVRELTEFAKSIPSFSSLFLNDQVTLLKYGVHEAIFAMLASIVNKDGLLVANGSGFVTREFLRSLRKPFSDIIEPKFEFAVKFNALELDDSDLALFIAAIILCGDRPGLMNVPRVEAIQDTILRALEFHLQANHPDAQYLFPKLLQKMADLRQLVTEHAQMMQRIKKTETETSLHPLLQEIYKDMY
Description: • Cell Handling: PathHunter NHR cell lines were expanded from freezer stocks according to standard procedures. Cells were seeded in a total volume of 20 μL into white walled, 384-well microplates and incubated at 37° C. for the appropriate time prior to testing. Assay media contained charcoal-dextran filtered serum to reduce the level of hormones present. • Agonist Format: For agonist determination, cells were incubated with sample to induce response. Intermediate dilution of sample stocks was performed to generate 5× sample in assay buffer. 5 μL of 5× sample was added to cells and incubated at 37° C. or room temperature for 3-16 hours. Final assay vehicle concentration was 1%. • Antagonist Format: For antagonist determination, cells were pre-incubated with antagonist followed by agonist challenge at the EC80 concentration. Intermediate dilution of sample stocks was performed to generate 5× sample in assay buffer. 5 μL of 5× sample was added to cells and incubated at 37° C. or room temperature for 60 minutes. Vehicle concentration was 1%. […] Microplates were read following signal generation with a PerkinElmer Envision™ instrument for chemiluminescent signal detection. • Data Analysis: Compound activity was analyzed using CBIS data analysis suite (ChemInnovation, CA). For agonist mode assays, percentage activity was calculated using the following formula: % Activity=100%×(mean RLU of test sample−mean RLU of vehicle control)/(mean MAX control ligand−mean RLU of vehicle control).
For antagonist mode assays, percentage inhibition was calculated using the following formula: % Inhibition=100%×(1−(mean RLU of test sample−mean RLU of vehicle control)/(mean RLU of EC80 control−mean RLU of vehicle control)). Note that for select assays, the ligand response produces a decrease in receptor activity (inverse agonist with a constitutively active target). For those assays inverse agonist activity was calculated using the following formula: % Inverse Agonist Activity=100%×((mean RLU of vehicle control−mean RLU of test sample)/(mean RLU of vehicle control−mean RLU of MAX control)).

Human PPARδ LBD = biological target: T2, Human PPARδ LBD (Homo sapiens, UniProt Q03181); experiment: PPARδ activity screen (GAL4-PPARδ LBD luciferase transactivation in CV-1 cells); assay type: cell-based
T2 construct: (PPARδ amino acid 128 to C-terminus); expressed in transfected cells; host or cells: CV-1 cells
T2 sequence (Q03181 128-441 limits assumed): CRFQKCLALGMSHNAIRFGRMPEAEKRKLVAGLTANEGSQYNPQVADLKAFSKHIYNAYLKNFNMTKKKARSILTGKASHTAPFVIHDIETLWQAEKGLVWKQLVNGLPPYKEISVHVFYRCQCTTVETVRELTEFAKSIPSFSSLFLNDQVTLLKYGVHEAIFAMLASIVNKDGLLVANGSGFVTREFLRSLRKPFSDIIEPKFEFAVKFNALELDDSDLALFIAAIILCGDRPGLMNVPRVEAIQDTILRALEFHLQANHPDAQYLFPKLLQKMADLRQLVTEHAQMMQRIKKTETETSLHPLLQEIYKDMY
Description: Cell Culture and Transfection: CV-1 cells were grown in DMEM+10% charcoal stripped FCS. Cells were seeded into 384-well plates the day before transfection to give a confluency of 50-80% at transfection. A total of […] containing 0.64 micrograms pCMX-PPARDelta LBD, 0.1 micrograms pCMXβGal, 0.08 micrograms pGLMH2004 reporter and 0.02 micrograms pCMX empty vector was transfected per well using FuGene transfection reagent according to the manufacturer's instructions (Roche).
Plasmids: Human PPARδ was used to PCR amplify the PPARδ LBD. […] Ensuing fusions were verified by sequencing.
Compounds: All compounds were dissolved in DMSO and diluted 1:1000 upon addition to the cells. Compounds were tested in quadruple in concentrations ranging from 0.001 to 100 μM. […] Each compound was tested in at least two separate experiments.
Luciferase assay: Medium including test compound was aspirated and washed with PBS. 50 μl PBS including 1 mM Mg++ and Ca++ were then added to each well. The luciferase assay was performed using the LucLite kit according to the manufacturer's instructions (Packard Instruments). Light emission was quantified by counting on a Perkin Elmer Envision reader. […] Beta-galactosidase assays were performed in the microwell plates using a kit from Promega and read in a Perkin Elmer Envision reader. The beta-galactosidase data were used to normalize (transfection efficiency, cell growth etc.) the luciferase data.
Statistical Methods: The activity of a compound is calculated as fold induction compared to an untreated sample. […] EC50 values were calculated via non-linear regression using GraphPad PRISM (GraphPad Software, San Diego, Calif.).

[4] = male, mouse, iv, 3 mg/Kg i.v., plasma
[5] = male, mouse, po, 10 mg/Kg p.o., plasma
[6] = Table 1, CV-1 cells, GAL4-PPARδ LBD luciferase reporter, compound 24 h, read-out: EC50
[7] = Table 15, read-out: PPARd, EC50 (nM) (from Salk)

SMILES: Cc1cc(SCc2sc(-c3ccc(C(F)(F)F)cc3)nc2C)ccc1OCC(=O)O [GW]
levels of VLCFAs (C22:0, C23:0, C24:0, C26:0) in AKO brain and liver (AKO mice; 8 weeks of GW treatment, 3-month-old AKO mice): significantly reduced | liver C26:0 (AKO mice; 8 weeks of GW treatment, most GW-treated animals): cleared | most saturated LCFAs (C12:0 to C22:0) and total FAs (AKO mice; AKO liver and muscle): significantly reduced | expression of mitochondrial FA oxidation genes (Cptla and lb, Slc25a20, Acadl) (AKO mice; AKO liver and skeletal muscle): dramatically induced

solubility kinetic ([1]; kinetic from dmso stock): 6 µM (≈ 2.69 µg/mL) | solubility thermodynamic ([1]; thermodynamic from solid): 253 µM (≈ 113 µg/mL) | % Parent remained at 15 min, MLM ([2]; 15 min): 59% | % Parent remained at 60 min, MLM ([2]; 60 min): 19% | Cl ([3]; 3 mg/Kg i.v., plasma): 194.938 mL/min/kg | Kel ([3]; 3 mg/Kg i.v., plasma): 3.85 h⁻¹ | F ([3]; 10 mg/Kg p.o. vs 3 mg/Kg i.v.): ~22% | Vd ([3]; male, plasma, iv, 3 mg/Kg i.v., plasma, read-out: Vss): 1.58 L/kg | Vd ([3]; male, plasma, iv, 3 mg/Kg i.v., plasma, read-out: Vz): 3.03 L/kg | AUC(0-inf) [3, 4]: 256 ng·h/mL | C0 [3, 4]: 1940 ng/mL | MRT [3, 4]: 7.2 min | half-life ([3]; male, mouse, iv, 3 mg/Kg i.v., plasma, read-out: Beta T1/2 (converted)): 10.8 min | AUC(0-inf) [3, 5]: 187 ng·h/mL | Cmax [3, 5]: 129 ng/mL | Tmax [3, 5]: 30 min | half-life ([3]; male, mouse, po, 10 mg/Kg p.o., plasma, read-out: T1/2 (converted)): 156 min | % Parent remained at 15 min, HLM (% Parent remained in HLM; 15 min): 92% | % Parent remained at 60 min, HLM (% Parent remained in HLM; 60 min): 64%
SMILES: O=C(O)CCCCCOc1ccccc1CN(C(=O)c1ccc(-c2ccco2)cc1)C1CC1 [compound 12]

SMILES: CC(C)N(Cc1ccccc1OCCCCCC(=O)O)C(=O)c1ccc(-c2ccoc2)cc1 [compound 62]
EC50 (PPARδ): 36.8 nM | EC50 (Human PPARδ LBD; [6]): 61 nM | EC50 (Human PPARδ LBD; [7]): 61 nM

SMILES: CC(C)N(Cc1ccccc1OCCCCCC(=O)O)C(=O)c1ccc(-c2ccsc2)cc1 [compound 64]
EC50 (PPARδ): 8.02 nM | EC50 (Human PPARδ LBD; [6]): 17.2 nM | EC50 (Human PPARδ LBD; [7]): 17.2 nM

Source: patent publication US10035819B2, “PPAR agonists and methods of use thereof” (The Salk Institute for Biological Studies, priority 2014, dated 2018)
